Patent publication US6727234B2, “Isoprenoid analog compounds and methods of making and use thereof” (University of Iowa Research Foundation, priority 2001, dated 2004)

Tests used:
[1] = Fluorescence of the compound; format: physicochemical
Description: Compound 58 can be used in enzyme experiments with FPTase and Ras in order to obtain standard Ras proteins labeled with the fluorescent isoprenoid analog. Similarly compound 62 can be used with GGPTase I or II and proteins such as Rho B to obtain other protein standards. Protein standards obtained from in vitro experiments can then be used to analyze cell lysates for the formation of analogous proteins through in vivo experiments. Compound 58 ^1H NMR(D2O) δ7.6 (1H), 7.2 (1H), 6.4 (2H), 5.4 (1H), 5.2 (1H), 4.4 (2H), 3.6 (3H), 3.4 (2H), 2.0 (2H), 1.8 (2H), 1.6 (3H), 1.4 (3H); and ^31P NMR −6.9 (d, 1P) −9.75 (d, 1P).

[2] = Metabolic stability compared to previously prepared analogs; format: in vitro ADME; details: compared to other previously prepared analogs; attributed to amine linkage binding anthranilic acid to the terpenoid chain
Description: As exemplified in the reaction scheme below, Fischer esterification of commercial anthranilic acid provides the corresponding amino ester 54. Reductive amination of amine 54 with aldehyde 55, derived from SeO2 oxidation of geranyl acetate and subsequent MnO2 oxidation, gave the desired amine 56 and subsequent cleavage of the acetate gave the farnesol analog 57.

cell membranes = experiment: Penetration of cell membranes to afford fluorescent cells; format: cell-based; details: affords fluorescent cells

fluorescence [1]: highly fluorescent
penetration of cell membranes (cell membranes): readily penetrates cell membranes
Structure (SMILES): COC(=O)c1ccccc1NC/C(C)=C/CC/C(C)=C/CO [Compound 57]
metabolic stability [2]: much greater degree of metabolic stability
